Results taken from the RepoRT retention time repository (doi:10.1021/acs.analchem.2c02893).

Assay: RP, Thermo Scientific Acclaim RSLC 120 C18, 100 × 2.1 mm, 2.2 µm, 30 °C, 0.2 mL/min, estimated dead time 1.1 min; A: 90% water + 10% methanol + 0.01% formic acid + 5 mM ammonium formate, pH 3.61; B: methanol + 0.01% formic acid + 5 mM ammonium formate, pH 3.61; gradient (min/%B) 0/1 1/1 2/39 13/99.9 15/99.9 15.1/1 20.1/1
Conditions: stereoisomer not certain

Row | SMILES | LC retention time
1 | CC(C)(Oc1ccc(C(=O)c2ccc(Cl)cc2)cc1)C(=O)O [Fenofibric acid] | 9.68 min
2 | COC(=O)C(C)Oc1cc(Cl)c(Cl)cc1Cl (centres undefined) [Fenoprop-methylester  (Silvex-methyester)] | 11.5 min
3 | CC(Cc1ccc(O)cc1)NCC(O)c1cc(O)cc(O)c1 (centres undefined) [Fenoterol] | 3.61 min
4 | CN(C)C(=O)SCCCCOc1ccccc1 [Fenothiocarb] | 10.7 min
5 | CC(Oc1ccc(Oc2nc3ccc(Cl)cc3o2)cc1)C(=O)O (centres undefined) [Fenoxaprop-P] | 9.83 min
6 | CCOC(=O)NCCOc1ccc(Oc2ccccc2)cc1 [Fenoxycarb] | 10.6 min
7 | N#Cc1c[nH]cc1-c1cccc(Cl)c1Cl [Fenpiclonil] | 8.91 min
8 | NC(=O)C(CCN1CCCCC1)(c1ccccc1)c1ccccc1 [Fenpipramide] | 5.19 min
9 | c1ccc(C(CCN2CCCCC2)c2ccccc2)cc1 [Fenpiprane] | 6.82 min
10 | CC1(C)C(C(=O)OC(C#N)c2cccc(Oc3ccccc3)c2)C1(C)C (centres undefined) [Fenpropathrin] | 12.9 min
11 | CC(Cc1ccc(C(C)(C)C)cc1)CN1CCCCC1 (centres undefined) [Fenpropidin] | 8.62 min
12 | CC(Cc1ccc(C(C)(C)C)cc1)CN1CC(C)OC(C)C1 (centres undefined) [Fenpropimorph] | 10.7 min
13 | CC(Cc1ccccc1)NCCC#N (centres undefined) [Fenproporex (NARL)] | 4.14 min
14 | Cc1nn(C)c(Oc2ccccc2)c1C=NOCc1ccc(C(=O)OC(C)(C)C)cc1 [Fenpyroximate] | 13.2 min
15 | O=S(=O)(Oc1ccc(Cl)cc1)c1ccccc1 [Fenson] | 10.1 min
16 | CCOP(=S)(OCC)Oc1ccc(S(C)(=O)=O)cc1 [Fensulfothion-sulfon] | 8.48 min
17 | CCOP(=S)(OCC)Oc1ccc(S(C)=O)cc1 (centres undefined) [Fensulfothion] | 8.27 min
18 | COP(=O)(OC)Oc1ccc(SC)c(C)c1 [Fenthion-oxon] | 8.82 min
19 | COP(=S)(OC)Oc1ccc(S(C)(=O)=O)c(C)c1 [Fenthion-sulfon] | 7.57 min
20 | COP(=S)(OC)Oc1ccc(S(C)=O)c(C)c1 (centres undefined) [Fenthion-sulfoxide] | 7.28 min

Row | SMILES | LC retention time
21 | COP(=S)(OC)Oc1ccc(SC)c(C)c1 [Fenthion] | 11 min
22 | Clc1ccc(C(Cn2ccnc2)OCc2ccc(Sc3ccccc3)cc2)c(Cl)c1 (centres undefined) [Fenticonazole] | 13.4 min
23 | c1cc[c]([Sn+]([c]2ccccc2)[c]2ccccc2)cc1 [Fentin (triphenylstannylium) (1+)] | 10.4 min
24 | CN(C)C(=O)Nc1ccccc1 [Fenuron] | 5.12 min
25 | CC(C)(C(=O)O)c1ccc(C(O)CCCN2CCC(C(O)(c3ccccc3)c3ccccc3)CC2)cc1 (centres undefined) [Fexofenadine] | 7.68 min
26 | CC(C)(C)NC(=O)C1CCC2C3CCC4NC(=O)C=CC4(C)C3CCC12C (centres undefined) [Finasteride] | 9.9 min
27 | N#Cc1nn(-c2c(Cl)cc(C(F)(F)F)cc2Cl)c(N)c1C(F)(F)F [Fipronil-desulfinyl] | 10.4 min
28 | N#Cc1nn(-c2c(Cl)cc(C(F)(F)F)cc2Cl)c(N)c1SC(F)(F)F [Fipronil-sulfide] | 10.8 min
29 | N#Cc1nn(-c2c(Cl)cc(C(F)(F)F)cc2Cl)c(N)c1S(=O)(=O)C(F)(F)F [Fipronil-sulfone] | 11 min
30 | N#Cc1nn(-c2c(Cl)cc(C(F)(F)F)cc2Cl)c(N)c1S(=O)C(F)(F)F (centres undefined) [Fipronil] | 10.5 min
31 | CC(C)OC(=O)C(C)N(C(=O)c1ccccc1)c1ccc(F)c(Cl)c1 (centres undefined) [Flamprop-isopropyl] | 10.8 min
32 | CC(C(=O)O)N(C(=O)c1ccccc1)c1ccc(F)c(Cl)c1 (centres undefined) [Flamprop] | 8.6 min
33 | COc1cc(OC)nc(NC(=O)NS(=O)(=O)c2ncccc2C(F)(F)F)n1 [Flazasulfuron] | 8.56 min
34 | O=C(NCC1CCCCN1)c1cc(OCC(F)(F)F)ccc1OCC(F)(F)F (centres undefined) [Flecainide] | 6.44 min
35 | O=c1[nH]c2ccccc2n1CCN1CCN(c2cccc(C(F)(F)F)c2)CC1 [Flibanserin] | 9.99 min
36 | O=c1oc2ccccc2c(O)c1C1CC(c2ccc(OCc3ccc(C(F)(F)F)cc3)cc2)Cc2ccccc21 (centres undefined) [Flocoumafen] | 12.4 min
37 | N#CCNC(=O)c1cnccc1C(F)(F)F [Flonicamid] | 4.22 min
38 | COc1ncc(F)c2nc(S(=O)(=O)Nc3c(F)cccc3F)nn12 [Florasulam] | 5.75 min
39 | CS(=O)(=O)c1ccc(C(O)C(CF)NC(=O)C(Cl)Cl)cc1 (centres undefined) [Florfenicol] | 4.73 min
40 | COC=C(C(=O)OC)c1ccccc1COc1cc(C(F)(F)F)nc(OC(C)C)n1 [Fluacrypyrim] | 11.5 min

Row | SMILES | LC retention time
41 | COc1ccccc1N1CCN(CCCC(=O)c2ccc(F)cc2)CC1 [Fluanisone] | 6.41 min
42 | CCCCOC(=O)C(C)Oc1ccc(Oc2ccc(C(F)(F)F)cn2)cc1 (centres undefined) [Fluazifop-p-butyl] | 12 min
43 | O=[N+]([O-])c1cc(C(F)(F)F)c(Cl)c([N+](=O)[O-])c1Nc1ncc(C(F)(F)F)cc1Cl [Fluazinam] | 12.3 min
44 | O=C(NC(=O)c1c(F)cccc1F)Nc1ccc(Cl)c(Oc2ncc(C(F)(F)F)cc2Cl)c1 [Fluazuron] | 12.7 min
45 | COC(=O)Nc1nc2ccc(C(=O)c3ccc(F)cc3)cc2[nH]1 [Flubendazole] | 8.65 min
46 | O=C1CN=C(c2ccccc2F)c2cc(Br)ccc2N1 [Flubromazepam] | 8.7 min
47 | Cc1nnc2n1-c1ccc(Br)cc1C(c1ccccc1F)=NC2 [Flubromazolam] | 8.04 min
48 | OC(Cn1cncn1)(Cn1cncn1)c1ccc(F)cc1F [Fluconazole] | 5.06 min
49 | O=C(NC(=O)c1c(F)cccc1F)Nc1ccc(CON=C(c2ccc(Cl)cc2)C2CC2)cc1 [Flucycloxuron] | 12.8 min
50 | CC(C)C(C(=O)OC(C#N)c1cccc(Oc2ccccc2)c1)c1ccc(OC(F)F)cc1 (centres undefined) [Flucythrinate] | 12.7 min
51 | N#Cc1c[nH]cc1-c1cccc2c1OC(F)(F)O2 [Fludioxonil] | 9.48 min
52 | CC(C)N(C(=O)CS(=O)(=O)O)c1ccc(F)cc1 [Flufenacet-ESA] | 5.71 min
53 | CC(C)N(C(=O)C(=O)O)c1ccc(F)cc1 [Flufenacet-OXA] | 5.49 min
54 | CC(C)N(C(=O)COc1nnc(C(F)(F)F)s1)c1ccc(F)cc1 [Flufenacet] | 10.1 min
55 | O=C(NC(=O)c1c(F)cccc1F)Nc1ccc(Oc2ccc(C(F)(F)F)cc2Cl)cc1F [Flufenoxuron] | 12.9 min
56 | Fc1cccc(F)c1-c1nnc(-c2ccccc2Cl)nn1 [Flufenzine (Diflovidazin)] | 10.8 min
57 | CCOC(=O)c1ncn2c1CN(C)C(=O)c1cc(F)ccc1-2 [Flumazenil] | 6.04 min
58 | CC1CC2C3CC(F)C4=CC(=O)C=CC4(C)C3(F)C(O)CC2(C)C1(O)C(=O)CO (centres undefined) [Flumethasone] | 8.28 min
59 | Cc1ccn2nc(S(=O)(=O)Nc3c(F)cccc3F)nc2n1 [Flumetsulam] | 4.83 min
